This note sets out measurements from patent US8222031B2, “Three-dimensional skin model” (Fraunhofer-Gesellschaft zur Foerderung der angewandten …, priority 2000, dated 2012).

Assay type in all cases: cell-based
Data set [1] deals with three-dimensional human skin equivalent. The data set is described as follows: Il1α secretion in media supernatants of skin equivalents by ELISA. As to the method:
(§1) Substances samples were used equivalently for testing on the human skin equivalent. The objective was to study any irritating effect of the samples on the full skin model after 48 hours of incubation time via the EZ4U metabolism. The secretion of Il1α and PGE2 was supposed to be determined in the media supernatants after 24 hours and after 48 hours by ELISA. Different concentrations of SDS were also run as a reference substance. Finally, all tested skin equivalents were fixed, and the morphological structure was tested and evaluated with stained paraffin sections.
(§2) The skin equivalents each were prepared in a 6-well with 1 ml of medium (KBM without hEGF, without BPE, and with 1.8 mM CaCl2). The samples were incubated on the surface of the corresponding skin models according to the following schedule:
(§3) Day 1: Application of 3 μl substance in the morning and in the afternoon.
Day 2: Media replacement and freezing of media supernatants for Il1α und PGE2 determination. […]
(§4) The Il1α and PGE2 content in the media supernatants was determined after 24 hours and 48 hours of incubation of the samples using commercially available ELISA test kits and following their instructions.
The induced secretion of cytokine Il1α was quantified by ELISA first after 24 hours and then after a subsequent, additional incubation for 24 hours with test substances in the media supernatants of the equivalents. […]

The test system is the same in data set [2]. The data set is described as follows: EZ4U test: cell metabolism (cytotoxicity) of skin equivalents. As to the method:
as §1
The skin equivalents each were prepared in a 6-well with 1 ml of medium (KBM without hEGF, without BPE, and with 1.8 mM CaCl2). The samples were incubated on the surface of the corresponding skin models according to the following schedule: […]
The EZ4U test was performed as followed: After 48 hours of incubation, the cell metabolism of the individual skin equivalents was determined photometrically using a vital stain (tetrazolium derivative). […] Turnover kinetics of the negative controls, positive controls, and the equivalents treated with the samples were recorded over a period of 2 hours at 450 nm (with a reference wavelength of 620 nm). […] Both Ec50 and Et50 were determined for SDS. Et50 was determined according to different exposure times from 1% SDS (3 sec, 30 sec, 60 sec, 5 min, 15 min). […]

Data set [3] has the same test system. The data set is described as follows: PGE2 synthesis in media supernatants of skin equivalents by ELISA. The procedure:
as §1, §2, §3
Day 2: Media replacement and freezing of media supernatants for Il1α und PGE2 determination. Treatment with 3 μl substance in the morning and in the afternoon.
Day 3: Freezing of media supernatants for Il1α und PGE2 determination. Determination of cell metabolism in EZ4U test over a period of 2 hours. Fixation of slides and preparation of stained paraffin sections for histological evaluation.
as §4
The synthesis of the PGE2 inflammatory mediator was quantitatively determined by ELISA in the skin model after a first incubation for 24 hours and subsequent second incubation for 24 hours with test substances in the media supernatants of the equivalents. Samples 186-355 as well as different concentrations of SDS were used as test substances.
(ELISA stands for enzyme-linked immunosorbent assay.)

SMILES strings stand for the structures.

Take `CCCCCCCCCCCCOS(=O)(=O)[O-].[Na+]` [SDS]: the “Il1α secretion, maximum” value in data set [1] (1% SDS, first 24 h incubation) is given as “more than 100 pg/ml per skin equivalent”. Further, in data set [1] (SDS, second 24 h incubation), the “Il1α secretion after the second incubation” value is reported as “remain overall elevated”. In addition, the “Change (in percent) of cell metabolism after 48 hours of incubation, in relation to untreated control (100%)” value in data set [2] (AST-2000, SDS 0.73% (Ec50 from dose/effect curve)) was 50%. Further, in data set [2] (SDS reference, dose/effect curve), the “Ec50 (concentration that causes 50% cell damage; irritation threshold)” value stood at 0.73%. In addition, the PGE2 synthesis is reported as not below 4000 pg/ml per skin equivalent in data set [3] (1% SDS, after the first 24 hours) and “almost unchanged low level” in data set [3] (up to an SDS concentration of 0.5%). Moreover, in data set [3] (SDS, second 24-hour incubation), the “PGE2 synthesis after the second 24-hour incubation” value is on record as “practically unchanged”.
